In US20260263473A1 (priority 2023, published 2026):

Assay: Blood levels of the actives after the three-compartment transdermal patch in a COVID patient
Format: in vivo, human
Conditions: for time at which blood levels rose to a peak: transdermal patch (48 mg ivermectin, 300 mg doxycycline, 50 mg zinc chelate; gelling agent and water), adhered to left side of chest for 3 days
Procedure: A patient with diabetes and hypertension had acquired COVID as proven by PCR. […] They were treated with a transdermal patch containing higher dose of active antiviral drugs including 48 mg of ivermectin, 300 mg of doxycycline, and 50 mg of zinc chelate. The transdermal patch had three separate compartments, each compartment containing one of ivermectin, doxycycline and zinc chelate. Each active ingredient was formulated with a gelling agent and water. The patch remained adhered to the left side of the chest for 3 days. Blood levels of each of the ivermectin, doxycycline and zinc chelate rose to a peak at 10 hrs, The patient's cough continued but slowly resolved and they were not breathless. […] The patient oxygen saturation improved within 2 days with oximetry rising to 96%.

[1] = orally treated patients (comparison)
[2] = transdermal patch, adhered to chest for 3 days, one patient

Molecule | persistence of blood levels (area under the curve) [1] [h] | time at which blood levels rose to a peak (one patient) [h] | area under the curve compared with single oral medications [2] | persistence of blood levels (area under the curve) [2] [h]
C[C@H]1c2cccc(O)c2C(=O)C2=C(O)[C@]3(O)C(=O)C(C(N)=O)=C(O)[C@@H](N(C)C)[C@@H]3[C@@H](O)[C@@H]21 [doxycycline] | 48 | 10 | greater than that of single oral medications | 140
ivermectin | 48 | 10 | greater than that of single oral medications | 140
